Test results published in ChEMBL document CHEMBL4651402, “Screening of ~5500 FDA-approved drugs and clinical candidates for anti-SARS-CoV-2 activity” (2021).

Tested on: SARS-CoV-2
Assay: microbe, parasite or virus in culture
Conditions: Severe acute respiratory syndrome coronavirus 2, Vero C1008, 48 h

Compound	IC50 [µM]	IC50 (read-out: pIC50 (converted)) [µM]
COc1ccc(-c2cc(=S)ss2)cc1 [ANETHOLTRITHION]	> 20	> 20
CCOC(=O)C1(c2ccccc2)CCN(CCc2ccc(N)cc2)CC1 [ANILERIDINE]	> 20	> 20
COc1ccc(C2C(=O)c3ccccc3C2=O)cc1 [ANISINDIONE]	> 20	> 20
COc1ccc(C[C@H]2NC[C@H](O)[C@H]2OC(C)=O)cc1 [ANISOMYCIN]	> 20	> 20
COc1ccccc1N1CCN(CCCC(O)c2ccc(F)cc2)CC1 (stereo unspecified) [ANISOPIROL]	> 20	> 20
CCCC(CCC)C(=O)O[C@H]1C[C@H]2CC[C@@H](C1)[N+]2(C)C [ANISOTROPINE]	> 20	> 20
COc1ccc(-c2nnc(C)nc2-c2ccc(OC)cc2)cc1 [ANITRAZAFEN]	> 20	> 20
c1ccc(CN(CC2=NCCN2)c2ccccc2)cc1 [ANTAZOLINE]	> 20	> 20
Cc1cc(=O)n(-c2ccccc2)n1C [ANTIPYRINE]	> 20	> 20
COc1cc(OC)c2c(=O)[nH]c(-c3cc(C)c(OCCO)c(C)c3)nc2c1 [APABETALONE]	> 20	> 20
CCNC(=O)[C@H]1O[C@@H](n2cnc3c(N)nc(C#CC[C@H]4CC[C@H](C(=O)OC)CC4)nc32)[C@H](O)[C@@H]1O [APADENOSON]	> 50.1	> 50.1
CNC(=O)c1ccc(N2C(=S)N(c3cnc(C#N)c(C(F)(F)F)c3)C(=O)C23CCC3)cc1F [APALUTAMIDE]	> 20	> 20
CCCC1C(=O)N2C(N(C)C)=Nc3ccc(C)cc3N2C1=O (stereo unspecified) [APAZONE]	> 20	> 20
O=c1cc(-c2ccc(O)cc2)oc2cc(O)cc(O)c12 [APIGENIN]	> 20	> 20
Cc1cccc(/C=N/Nc2cc(N3CCOCC3)nc(OCCc3ccccn3)n2)c1 [APILIMOD]	> 20	> 20
C=CCc1cc(OC)c2c(c1OC)OCO2 [APIOL]	> 20	> 20
Cc1c(CN2CCN(C(=O)[C@H](C)O)CC2)sc2c(N3CCOCC3)nc(-c3cnc(N)nc3)nc12 [APITOLISIB]	> 20	> 20
COc1ccc(-n2nc(C(N)=O)c3c2C(=O)N(c2ccc(N4CCCCC4=O)cc2)CC3)cc1 [APIXABAN]	> 20	> 20
COc1cc(C(C)=O)ccc1O [APOCYNIN]	> 20	> 20
CN1CCc2cccc3c2[C@H]1Cc1ccc(O)c(O)c1-3 [APOMORPHINE]	> 20	> 20
Nc1cc(Cl)c(N=C2NCCN2)c(Cl)c1 [APRACLONIDINE]	> 20	> 20
C[C@@H](O[C@H]1OCCN(Cc2n[nH]c(=O)[nH]2)[C@H]1c1ccc(F)cc1)c1cc(C(F)(F)F)cc(C(F)(F)F)c1 [APREPITANT]	> 20	> 20
C=CCC1(C(C)C)C(=O)NC(=O)NC1=O [APROBARBITAL]	> 20	> 20
CCN(CC)CCOC(=O)C(C)(c1ccccc1)c1ccccc1 [APROFENE]	> 20	> 20
O=c1ccn([C@@H]2O[C@H](CO)[C@@H](O)[C@@H]2O)c(=O)[nH]1 [ARAURIDINE]	> 20	> 20

Compound	IC50 [µM]	IC50 (read-out: pIC50 (converted)) [µM]
OC[C@H]1O[C@@H](Oc2ccc(O)cc2)[C@H](O)[C@@H](O)[C@@H]1O [ARBUTIN]	> 20	> 20
N=C(N)NCCCCNC(=N)N [ARCAINE]	> 20	> 20
COC(=O)C1=CCCN(C)C1 [ARECOLINE]	> 20	> 20
CCOC(=O)N1CCC(=O)N(c2ccccc2)c2cc(Cl)ccc21 [ARFENDAZAM]	> 20	> 20
CC1CNc2c(cccc2S(=O)(=O)N[C@@H](CCCNC(=N)N)C(=O)N2CC[C@@H](C)C[C@@H]2C(=O)O)C1 (stereo partly specified) [ARGATROBAN]	> 20	> 20
C=C1C(=O)O[C@@H]2[C@H]3C(C)=CC[C@@]34O[C@@]4(C)CC[C@@H]12 [ARGLABIN]	> 20	> 20
CC(=O)NCCOC(=O)[C@H](Oc1cccc(C(F)(F)F)c1)c1ccc(Cl)cc1 [ARHALOFENATE]	> 20	> 20
CCCn1c(=O)c2[nH]cnc2n(-c2ccc(Cl)cc2)c1=O [AROFYLLINE]	> 20	> 20
CCN(CC)CC#CCOC(=O)[C@](O)(c1ccccc1)C1CCCCC1 [AROXYBUTYNIN]	> 20	> 20
C[C@@H]1CC[C@H]2[C@@H](C)C(=O)O[C@@H]3O[C@@]4(C)CC[C@@H]1[C@]32OO4 [ARTEMISININ]	> 20	> 20
C[C@H]1[C@H](OC(=O)CCC(=O)O)O[C@@H]2O[C@@]3(C)CC[C@H]4[C@H](C)CC[C@@H]1[C@@]24OO3 [ARTESUNATE]	> 20	> 20
CCCNC(C)C(=O)Nc1c(C)csc1C(=O)OC (stereo unspecified) [ARTICAINE]	> 20	> 20
c1ccc2c(Cc3c[nH]c4ccccc34)c[nH]c2c1 [ARUNDINE]	> 20	> 20
c1cc2c(cc1[C@H]1OC[C@H]3[C@@H]1CO[C@H]3c1ccc3c(c1)OCO3)OCO2 [ASARININ]	> 20	> 20
O=C1O[C@H]([C@@H](O)CO)C(O)=C1O [ASCORBIC ACID]	> 20	> 20
CN(C(=O)C(c1ccccc1)c1ccccc1)[C@H](CN1CC[C@H](O)C1)c1ccccc1 [ASIMADOLINE]	> 20	> 20
COc1cccc(-c2cc(F)c(Nc3ncccc3C(=O)O)c(F)c2)c1 [ASLAN-003]	> 20	> 20
CC(=O)Oc1ccccc1C(=O)O [ASPIRIN]	> 20	> 20
O=C(NC1CCNCC1)c1n[nH]cc1NC(=O)c1c(Cl)cccc1Cl [AT-7519]	> 20	> 20
O=C(Nc1c[nH]nc1-c1nc2ccc(CN3CCOCC3)cc2[nH]1)NC1CC1 [AT-9283]	> 20	> 20
COC(=O)N[C@H](C(=O)N[C@@H](Cc1ccccc1)[C@@H](O)CN(Cc1ccc(-c2ccccn2)cc1)NC(=O)[C@@H](NC(=O)OC)C(C)(C)C)C(C)(C)C [ATAZANAVIR]	> 20	> 20
O=C1c2ccccc2C(=O)c2c1ccc(O)c2O [ATHRAQUINONES A]	> 20	> 20
Cc1cc(C)cc([C@@H]2CCCN2Cc2ccc(Oc3ccc(C(N)=O)cc3F)cc2)c1 [ATICAPRANT]	> 20	> 20
CCC1(c2c[nH]cn2)Cc2ccccc2C1 [ATIPAMEZOLE]	> 20	> 20
CCCC1(CCC)CCC2(CCN(CCCN(CC)CC)C2)CC1 [ATIPRIMOD]	> 20	> 20

Compound	IC50 [µM]	IC50 (read-out: pIC50 (converted)) [µM]
CNCC[C@@H](Oc1ccccc1C)c1ccccc1 [ATOMOXETINE]	> 20	> 20
CCOc1cc2c(c(F)c1OCC)C(=N)N(CC(=O)c1cc(N3CCOCC3)c(OC)c(C(C)(C)C)c1)C2 [ATOPAXAR]	> 20	> 20
CC(C)c1c(C(=O)Nc2ccccc2)c(-c2ccccc2)c(-c2ccc(F)cc2)n1CC[C@@H](O)C[C@@H](O)CC(=O)O [ATORVASTATIN]	> 20	> 20
O=C1C(O)=C([C@H]2CC[C@H](c3ccc(Cl)cc3)CC2)C(=O)c2ccccc21 [ATOVAQUONE]	> 20	> 20
COC(=O)c1c(C)cc(OC(=O)c2c(C)cc(O)c(C=O)c2O)c(C)c1O [ATRANORIN]	> 20	> 20
C[C@H](C#Cc1ccc(Cc2ccc(F)cc2)s1)N(O)C(N)=O [ATRELEUTON]	> 20	> 20
CC(O)(C(N)=O)c1ccccc1 (stereo unspecified) [ATROLACTAMIDE]	> 20	> 20
CN1[C@@H]2CC[C@H]1C[C@@H](OC(=O)C(CO)c1ccccc1)C2 (stereo partly specified) [ATROPINE]	> 20	> 20
O=C(O)C1=CC(=C(c2ccc(O)c(C(=O)O)c2)c2ccc(O)c(C(=O)O)c2)C=CC1=O [AURINTRICARBOXYLIC ACID]	> 20	> 20
Oc1ccc([C@H]2COc3cc(O)ccc3C2)cc1 [AUS-131]	> 20	> 20
CC1=CC(=O)C2=C(C)C[C@H](O)[C@@H]3[C@H](OC(=O)[C@H]3C)[C@@H]12 [AUSTRICIN]	> 20	> 20
Cc1nc2cccc(N)c2c(=O)n1C1CCC(=O)NC1=O (stereo unspecified) [AVADOMIDE]	> 20	> 20
Cn1cc(-c2cc3c(N4CCN(c5ncc([C@@](C)(N)c6ccc(F)cc6)cn5)CC4)ncnn3c2)cn1 [AVAPRITINIB]	> 20	> 20
COc1ccc(C(=O)CC(=O)c2ccc(C(C)(C)C)cc2)cc1 [AVOBENZONE]	> 20	> 20
COc1ccccc1Oc1c(NS(=O)(=O)c2ccc(C)cn2)nc(-c2ccncc2)nc1OC [AVOSENTAN]	> 20	> 20
Nc1ncn([C@@H]2O[C@H](CO)[C@@H](O)[C@H]2O)c(=O)n1 [AZACITIDINE]	> 20	> 20
Clc1ccc(C2(Cn3cncn3)OCCO2)c(Cl)c1 [AZACONAZOLE]	> 20	> 20
OC(c1ccccc1)(c1ccccc1)C1CCNCC1 [AZACYCLONOL]	> 20	> 20
CN1CCC(=C2c3ccccc3Oc3ncccc32)CC1 [AZANATOR]	> 20	> 20
Cn1c([N+](=O)[O-])cnc1/C=C/c1ccnc(N)n1 [AZANIDAZOLE]	> 20	> 20
O=C(CCCN1CCN(c2ccccn2)CC1)c1ccc(F)cc1 [AZAPERONE]	> 20	> 20
C=CCN1Cc2ccccc2-c2ccccc2C1 [AZAPETINE]	> 20	> 20
CC(=O)OC[C@H]1O[C@@H](n2ncc(=O)[nH]c2=O)[C@H](OC(C)=O)[C@@H]1OC(C)=O [AZARIBINE]	> 20	> 20
